Test results reported in the SangsterLogP compilation.

Experiments:
[1] = method code SF, from DOI: 10.1002/tera.1420200312, PMID: 120615; details: pH 7.4

Q: With C=CCCCCCCCCC(=O)O as the compound, how does the logP read?
A: 3.86

Q: With CCC(=O)O as the compound, how does the logP read?
A: 0.32

Q: For CCCCC(=O)O, which logP is on record?
A: 1.39

Q: For O=C(O)c1cc(I)cc(I)c1O, which logP is on record?
A: 4.2

Q: Which logP does the source give for CCCCCCCC(=O)O here?
A: 3.05

Q: For Cc1ccccc1O, which logD [1] is on record?
A: 1.93

Q: With CC/C(=C(/CC)c1ccc(O)cc1)c1ccc(O)cc1 as the compound, how does the logD [1] read?
A: 4.76

Q: With Cc1cc(O)c(C(C)C)cc1Cl as the compound, how does the logD [1] read?
A: 3.92

Q: With O=C(Nc1ccccc1)c1ccccc1O as the compound, how does the logP read?
A: 3.25

Q: With O=C(O)c1cccnc1 as the compound, how does the logP read?
A: -0.46

Q: For Oc1ccc(Cl)cc1Cc1cc(Cl)ccc1O, which logP is on record?
A: 4.26
